Here are results for twelve compounds from US20130337564A1, “Treatment of Pluripotent Cells” (Janssen Biotech, Inc., priority 2012, published 2013).

Structures are written as SMILES. Where “and” joins values, the source holds several entries; their conditions need not be identical. Equal values may be shown once.

Test [1] concerns cells expressing pluripotency markers derived from human embryonic stem cells. As to the kind of experiment: MTS viability (toxicity) assay of cells expressing pluripotency markers. Format: cell-based. More on the design: Raw data (duplicate), first replicate / Average: unit not given here. To be noted: for viability at 10 µM: Homo sapiens, Embryonic stem cell; for viability at 10 µM / % Control: viability of cells expressing pluripotency markers, relative to control; for Raw data (duplicate), first replicate / Raw data (duplicate), second replicate: MTS viability assay raw reading; for Raw data (duplicate), first replicate: replicate 1; for Raw data (duplicate), second replicate: replicate 2; for Average: average of duplicate MTS raw readings. Here is the method:
Derivation and maintenance of cells expressing pluripotency makers was conducted as has been described in Example 2. Cells were grown in DMEM:F12 supplemented with 2% FCS (Invitrogen), 100 ng/ml Activin A, 20 ng/ml Wnt-3a, and 50 ng/ml IGF (R&D Biosystems). Cells were seeded at a density of 10,000 cells/cm^2 on Falcon polystyrene flasks and grown in monolayer culture at 37° C., 5% CO2, low oxygen. After reaching 60-70% confluence, cells were passed by washing the monolayer with PBS and incubating with TrypLE (Invitrogen) for 3-5 minutes to allow detachment and single cell dispersal.
Screening was conducted using test compounds from a proprietary library of small molecules selected for their ability to inhibit GSK-3B enzyme activity. Compounds from this library were made available as 1 mM stocks, in a 96-well plate format in 50 mM HEPES, 30% DMSO. For assay, cells expressing pluripotency markers were washed, counted, and plated in normal culture medium at a seeding density of 20,000 cells per well in 96-well clear-bottom, dark-well plates (Costar). This seeding density was previously determined to yield optimal monolayer formation in overnight culture. On the following day, culture medium was removed, cell monolayers were rinsed three times with PBS, and test compounds were added to the wells in 80 μl aliquots, each diluted into assay medium at a final assay concentration of 10 μM. On day 2 of the assay, medium was removed from each well and replaced with a fresh aliquot of test compounds diluted into assay medium. Assay medium on days 1 and 2 of culture consisted of DMEM:F12 supplemented with 0.5% FCS and 100 ng/ml Activin A. On days 3 and 4 of culture, medium was removed from each well and replaced with DMEM:F12 supplemented with 2% FCS and 100 ng/ml Activin A (no test compound). On day 4 of assay, 15 μl of MTS (Promega) was added to each well and plates were incubated at 37° C. for 1.5 to 4 hours prior to reading optical density at 490 nm on a SpectraMax (Molecular Devices) instrument. Statistical measures consisting of mean, standard deviation, and coefficient of variation were calculated for each duplicate set. Toxicity was calculated for each test well relative to a positive control (wells treated with Activin A and Wnt3a on days 1 and 2 of culture).
A larger proportion of the compounds have minimal or no measurable toxicity in this cell-based assay.
A small panel of select compounds was repeat tested over a narrow dose titration range, again using cells expressing pluripotency markers in a similar assay as described above.

Test [2] concerns human embryonic stem cells (H9 or H1 lines). Put plainly: Plate reader (MTS) proliferation assay. Format: cell-based. Particulars: for Average: average of replicate raw data; for activity at 10 µM: Homo sapiens, Embryonic stem cell, 96 h; for activity at 10 µM / % Control Value (proliferation): 10 μM test compound with 100 ng/ml activin A on days 1-2, MTS OD490 on day 4, vs Activin A/Wnt3a positive control, strong and moderate hits; for Raw Data: replicate wells, plate reader proliferation screen of GSK-3B inhibitors. Here is the method: Maintenance of human embryonic stem cells (H9 or H1 lines) was conducted as described in Example 1. Colonies of cells were maintained in an undifferentiated, pluripotent state with passage on average every four days. Passage was performed by exposing cell cultures to a solution of collagenase (1 mg/ml; Sigma-Aldrich) for 10 to 30 minutes at 37° C. followed by gentle scraping with a pipette tip to recover cell clusters. Clusters were allowed to sediment and washed to remove residual collagenase. Cell clusters were split at a ratio of 1:3 monolayer area for routine culture or a 1:1 ratio for immediate assay. The human embryonis stem cell lines used for these examples were maintained at passage numbers less than 50 and routinely evaluated for normal karyotypic phenotype as well as absence of mycoplasm contamination.
Cell clusters used in assay were evenly resuspended in normal culture medium and plated into MATRIGEL-coated 96-well Packard VIEWPLATES (PerkinElmer) in volumes of 100 μl/well. MEF conditioned medium supplemented with 8 ng/ml bFGF) was used for initial plating and recovery. Daily feeding was conducted by aspirating spent culture medium from each well and replacing with an equal volume of fresh medium. Plates were maintained at 37° C. in a humidified box, 5% CO2 throughout the duration of assay.
Primary screening assays were initiated by aspirating culture medium from each well followed by three washes in PBS to remove residual growth factors and serum. Test volumes of 80-100 μl per well were added back containing DMEM:F12 base medium (Invitrogen) supplemented with 0.5% FCS (HyClone) and 100 ng/ml activin A (R&D Biosystems) and 10 μM test compound. Positive control wells contained the same medium substituting 10-20 ng/ml Wnt3a (R&D Biosystems). Negative control wells contained base medium with 0.5% FCS without activin A or Wnt3a. Screening compounds were tested in triplicate. Wells were aspirated and fed again with identical solutions on day 2 of the assay. On days 3 and 4, all assay wells were aspirated and converted to DMEM:F 12 supplemented with 2% FCS and 100 ng/ml activin A with the exception of negative control wells which were maintained in DMEM:F12 base medium with 2% FCS.
On day 4 of assay, 15-20 μl of MTS (Promega) was added to each well and plates were incubated at 37° C. for 1.5 to 4 hours. Densitometric readings at OD490 were determined using a Molecular Devices spectrophotometer plate reader. Average readings for replicate sets were calculated along with standard deviation and coefficient of variation. Experimental wells were compared to the Activin A/Wnt3a positive control to calculate a percent control value as a measure of proliferation.
Strong hits are defined as greater than or equal to 120% of control values; moderate hits are defined as falling within the interval of 60-120% of control values. A significant number of compounds induce a proliferative response in this assay.

With `O=C1NC(=O)C(c2cccc3c2oc2ccccc23)=C1c1cn(CCCO)c2ncccc12` [Compound 33, 3-Dibenzo[b,d]furan-4-yl-4-[1-(3-hydroxypropyl)-1H-pyrrolo[2,3-b]pyridin-3-yl]-1H-pyrrole-2,5-dione], in test [1], the viability at 10 µM came out at 45.2%; the “Raw data (duplicate), first replicate” value is 0.315; the “Raw data (duplicate), second replicate” value is 0.542; the Average is 0.428. In addition, the Average in test [2] was 0.1889.
On the same counts, the results for `O=C1NC(=O)C(c2cccc3c2sc2ccccc23)=C1c1cn(CCCO)c2ncccc12` [Compound 34, 3-Dibenzo[b,d]thien-4-yl-4-[1-(3-hydroxypropyl)-1H-pyrrolo[2,3-b]pyridin-3-yl]-1H-pyrrole-2,5-dione] are 83.5%, 0.750, 0.624, 0.687 and 0.1420.
For `COc1ncc(C2=C(c3cn(CCCO)c4ncccc34)C(=O)NC2=O)c(OC)n1` [Compound 48, 3-[2,4-Bis(methyloxy)pyrimidin-5-yl]-4-[1-(3-hydroxypropyl)-1H-pyrrolo[2,3-b]pyridin-3-yl]-1H-pyrrole-2,5-dione], the activity at 10 µM in test [2] was determined as 148%.
In the case of `COCCCn1cc(C2=C(c3ccccc3OC)C(=O)NC2=O)c2cnccc21` [Compound 55, 3-[2-(Methyloxy)phenyl]-4-{1-[3-(methyloxy)propyl]-1H-pyrrolo[3,2-c]pyridin-3-yl}-1H-pyrrole-2,5-dione], in test [1], the viability at 10 µM was 115%; the “Raw data (duplicate), first replicate” value worked out at 0.952; the “Raw data (duplicate), second replicate” value was 0.919; the Average came to 0.935. Also, in test [2], the activity at 10 µM is 152% and the Average stood at 1.1695.
In the case of `COc1ncc(C2=C(c3cn(CCCC#N)c4ncccc34)C(=O)NC2=O)c(OC)n1` [Compound 74, 4-(3-{4-[2,4-Bis(methyloxy)pyrimidin-5-yl]-2,5-dioxo-2,5-dihydro-1H-pyrrol-3-yl}-1H-pyrrolo[2,3-b]pyridin-1-yl)butanenitrile], the viability at 10 µM in test [1] was found to be 78.8%. Further, the activity at 10 µM in test [2] was determined as 130%.
For `O=C1NC(=O)C(c2nn(CCCO)c3ccccc23)=C1c1cn(C2CCOCC2)c2ccccc12` [Compound 78, 3-[1-(3-Hydroxypropyl)-1H-indazol-3-yl]-4-[1-(tetrahydro-2H-pyran-4-yl)-1H-indol-3-yl]-1H-pyrrole-2,5-dione], in test [1], the viability at 10 µM amounted to 22%; the “Raw data (duplicate), first replicate” value turned out to be 0.300; the “Raw data (duplicate), second replicate” value is recorded as 0.223; the Average stood at 0.261. Also, in test [2], the activity at 10 µM amounted to 154% and the Average worked out at 1.0282.
Regarding `Cn1cc(C2=C(c3nn(CC(=O)NCCO)c4ccccc34)C(=O)NC2=O)c2cc(Cl)ccc21` [Compound 82, 2-{3-[4-(5-Chloro-1-methyl-1H-indol-3-yl)-2,5-dioxo-2,5-dihydro-1H-pyrrol-3-yl]-1H-indazol-1-yl}-N-(2-hydroxyethyl)acetamide], in test [1], the viability at 10 µM was 95%; the “Raw data (duplicate), first replicate” value amounted to 0.684; the “Raw data (duplicate), second replicate” value came to 0.809; the Average came to 0.746. For the same compound, in test [2], the activity at 10 µM amounted to 131% and the Average worked out at 0.8929.
Take `Cn1ccc(C2=C(c3cn(CCCC#N)c4ncccc34)C(=O)NC2=O)n1` [Compound 94, 4-{3-[4-(1-Methyl-1H-pyrazol-3-yl)-2,5-dioxo-2,5-dihydro-1H-pyrrol-3-yl]-1H-pyrrolo[2,3-b]pyridin-1-yl}butanenitrile]: in test [1], the viability at 10 µM turned out to be 95%; the “Raw data (duplicate), first replicate” value was determined as 0.810; the “Raw data (duplicate), second replicate” value was 0.683; the Average came out at 0.746. In test [2], the activity at 10 µM stood at 146% and the Average was found to be 0.9819.
Turning to `COc1ncc(C2=C(c3cn(CCc4ccccc4)c4ncccc34)C(=O)NC2=O)c(OC)n1` [Compound 98, 3-[2,4-Bis(methyloxy)pyrimidin-5-yl]-4-[1-(2-phenylethyl)-1H-pyrrolo[2,3-b]pyridin-3-yl]-1H-pyrrole-2,5-dione], in test [1], the viability at 10 µM is 88.1%; the “Raw data (duplicate), first replicate” value is 0.758; the “Raw data (duplicate), second replicate” value is listed as 0.575; the Average is reported as 0.667. Besides, in test [2], the activity at 10 µM amounted to 88% and the Average was found to be 0.6374.
With `O=C1NC(=O)C2=C1c1cn(c3ccccc13)CCOCCOCCN(Cc1ccccc1)CCn1cc2c2ccccc21` [Compound 105, 14-(Phenylmethyl)-6,7,9,10,13,14,15,16-octahydro-12H,23H-5,26:17,22-di(metheno)dibenzo[k,q]pyrrolo[3,4-n][1,4,7,10,19]dioxatriacyclohenicosine-23,25(24H)-dione], in test [1], the “Raw data (duplicate), first replicate” value is reported as 0.916; the “Raw data (duplicate), second replicate” value came to 0.859; the Average was 0.887; the “% Control” value was 124.0%. In test [2], the “% Control Value (proliferation)” value came to 183.8%; the Average is given as 1.2038; the “Raw Data” value is 1.0968 and 1.3108.
As to `O=C1NC(=O)C2=C1c1cn(c3ccccc13)CCOCCOCCN(Cc1ccco1)CCn1cc2c2ccccc21` [Compound 127, 14-(Furan-2-ylmethyl)-6,7,9,10,13,14,15,16-octahydro-12H,23H-5,26:17,22-di(metheno)dibenzo[k,q]pyrrolo[3,4-n][1,4,7,10,19]dioxatriazacyclohenicosine-23,25(24H)-dione], in test [1], the “Raw data (duplicate), first replicate” value is 0.745 and 0.744; the “Raw data (duplicate), second replicate” value is 0.685 and 0.737; the Average is 0.715 and 0.741; the “% Control” value is 90.2% and 94.1%. Further, in test [2], the “% Control Value (proliferation)” value was 136.8% and 124.4%; the Average is 0.9229 and 1.0032; the “Raw Data” value was 0.9589 and 0.8868 and 1.0442 and 0.9622.
Consider `O=C1NC(=O)C(c2cn(CCCO)c3ncccc23)=C1c1cc2ccccc2o1` [Compound 241, 3-(1-Benzofuran-2-yl)-4-[1-(3-hydroxypropyl)-1H-pyrrolo[2,3-b]pyridin-3-yl]-1H-pyrrole-2,5-dione], for which, in test [1], the viability at 10 µM is 85.3%.
